Measured values as given in the supplement of paper PMC13380429.

What was measured:
Settings in all cases: 72 h
[1] = test system: HepG2; assay: cell viability relative to DMSO; higher = less toxic
[2] = test system: Vero E6; assay: as above
[3] = test system: Calu-3; assay: as above
[4] = test system: Caco-2; assay: as above
[5] = test system: U2OS; assay: as above
[6] = test system: HepG2; assay: relative viability EC50 (midpoint between 100% and the lowest measured viability); higher = less toxic
[7] = test system: Vero E6; assay: as above
[8] = test system: Calu-3; assay: as above
[9] = test system: Caco-2; assay: as above
[10] = test system: U2OS; assay: as above
[11] = test system: HepG2; assay: drug sensitivity score (DSS) for viability; higher = more toxic; extreme values may be limits of the assay
[12] = test system: Vero E6; assay: as above
[13] = test system: Calu-3; assay: as above
[14] = test system: Caco-2; assay: as above
[15] = test system: U2OS; assay: as above

Row | SMILES | cell viability ([1]; 1 nM) | cell viability ([1]; 10 nM) | cell viability ([1]; 100 nM) | cell viability ([1]; 1000 nM) | cell viability ([1]; 10000 nM) | cell viability ([2]; 1 nM) | cell viability ([2]; 10 nM) | cell viability ([2]; 100 nM) | cell viability ([2]; 1000 nM) | cell viability ([2]; 10000 nM) | cell viability ([3]; 1 nM) | cell viability ([3]; 10 nM) | cell viability ([3]; 100 nM) | cell viability ([3]; 1000 nM) | cell viability ([3]; 10000 nM) | cell viability ([4]; 1 nM) | cell viability ([4]; 10 nM) | cell viability ([4]; 100 nM) | cell viability ([4]; 1000 nM) | cell viability ([4]; 10000 nM) | cell viability ([5]; 1 nM) | cell viability ([5]; 10 nM) | cell viability ([5]; 100 nM) | cell viability ([5]; 1000 nM) | cell viability ([5]; 10000 nM) | relative viability EC50 [6] | relative viability EC50 [7] | relative viability EC50 [8] | relative viability EC50 [9] | relative viability EC50 [10] | drug sensitivity score [11] | drug sensitivity score [12] | drug sensitivity score [13] | drug sensitivity score [14] | drug sensitivity score [15]
1 | CCC(C/C=C/c1ccccc1)(c1ccccc1)N(C)CC1CC1 (stereo not given) [igmesine] | 102% | 105% | 101% | 102% | 96.8% | 98.8% | 97.7% | 94.2% | 98.1% | 107% | 99% | 104% | 96.8% | 102% | 97.8% | 95.4% | 97% | 95.2% | 102% | 103% | 94.7% | 99% | 100% | 101% | 102% | > 10 µM | > 10 µM | > 10 µM | > 10 µM | > 10 µM | 0 | 0 | 0 | 0 | 0
2 | C[C@]12CC[C@@H]3c4ccc(O)cc4C[C@@H](CCCCCCCCC[S+]([O-])CCCC(F)(F)C(F)(F)F)[C@H]3[C@@H]1CC[C@@H]2O (stereo not given in full) [fulvestrant] | 100% | 102% | 96.8% | 98% | 86.7% | 100% | 102% | 100% | 96.9% | 99.6% | 96.7% | 114% | 104% | 90.2% | 92.7% | 104% | 107% | 102% | 110% | 85.4% | 105% | 110% | 102% | 103% | 88.7% | > 10 µM | > 10 µM | > 10 µM | > 10 µM | > 10 µM | 0.3 | 0 | 0 | 0.1 | 0
3 | Cc1ccc(S(=O)(=O)n2c(N)nc3ccccc32)cc1 [ML130] | 98% | 107% | 111% | 100% | 104% | 103% | 108% | 103% | 109% | 96.2% | 103% | 89.2% | 99.5% | 101% | 103% | 107% | 97% | 107% | 101% | 90.5% | 104% | 108% | 105% | 103% | 97.3% | > 10 µM | > 10 µM | > 10 µM | > 10 µM | > 10 µM | 0 | 0 | 0 | 0 | 0
